In ChEMBL document CHEMBL1130939, “Alkyl side-chain derivatives of sordaricin as potent antifungal agents against yeast” (Bioorg Med Chem Lett, 1998):
Values after ≈ are worked out from the molar mass of the structure shown.

System: Saccharomyces cerevisiae
Experiment: Antifungal activity against Saccharomyces cerevisiae (strain YPH98)
Assay type: functional, organism-based

IC50 [ng/mL] | Compound
200 (≈ 453 nM) | CCCCCCCCOC[C@]12CC3C(C)CCC3[C@@]3(C#N)CC1C=C(C(C)C)[C@@]23C(=O)O (stereo partly specified)
1000 (≈ 2190 nM) | CCCCCCCCCOC[C@]12CC3C(C)CCC3[C@@]3(C#N)CC1C=C(C(C)C)[C@@]23C(=O)O (stereo partly specified)
100 (≈ 234 nM) | CCCCCCCOC[C@]12CC3C(C)CCC3[C@@]3(C#N)CC1C=C(C(C)C)[C@@]23C(=O)O (stereo partly specified)
300 (≈ 697 nM) | CCCCCCCOC[C@]12CC3C(C)CCC3[C@@]3(C=O)CC1C=C(C(C)C)[C@@]23C(=O)O (stereo partly specified)
0.3 (≈ 0.725 nM) | CCCCCCOC[C@]12CC3C(C)CCC3[C@@]3(C#N)CC1C=C(C(C)C)[C@@]23C(=O)O (stereo partly specified)
400 (≈ 900 nM) | CCCCCCCCOC[C@]12CC3C(C)CCC3[C@@]3(C=O)CC1C=C(C(C)C)[C@@]23C(=O)O (stereo partly specified)
0.01 (≈ 0.025 nM) | CCCCCOC[C@]12CC3C(C)CCC3[C@@]3(C#N)CC1C=C(C(C)C)[C@@]23C(=O)O (stereo partly specified)
30 (≈ 77.8 nM) | CCCCOC[C@]12CC3C(C)CCC3[C@@]3(C#N)CC1C=C(C(C)C)[C@@]23C(=O)O (stereo partly specified)
90 (≈ 242 nM) | CCCOC[C@]12CC3C(C)CCC3[C@@]3(C#N)CC1C=C(C(C)C)[C@@]23C(=O)O (stereo partly specified)
50000 (≈ 109000 nM) | CCCCCCCCCOC[C@]12CC3C(C)CCC3[C@@]3(C=O)CC1C=C(C(C)C)[C@@]23C(=O)O (stereo partly specified)

Second part, the compound before the results:

Compound | IC50 [ng/mL]
CCOC[C@]12CC3C(C)CCC3[C@@]3(C=O)CC1C=C(C(C)C)[C@@]23C(=O)O (stereo partly specified) | 60 (≈ 166 nM)
COC[C@]12CC3C(C)CCC3[C@@]3(C=O)CC1C=C(C(C)C)[C@@]23C(=O)O (stereo partly specified) | 100 (≈ 289 nM)
CC(C)CCOC[C@]12CC3C(C)CCC3[C@@]3(C#N)CC1C=C(C(C)C)[C@@]23C(=O)O (stereo partly specified) | 0.01 (≈ 0.025 nM)
CC(C)COC[C@]12CC3C(C)CCC3[C@@]3(C=O)CC1C=C(C(C)C)[C@@]23C(=O)O (stereo partly specified) | 0.1 (≈ 0.257 nM)
CCOC[C@]12CC3C(C)CCC3[C@@]3(C#N)CC1C=C(C(C)C)[C@@]23C(=O)O (stereo partly specified) | 500 (≈ 1400 nM)
CC(C)COC[C@]12CC3C(C)CCC3[C@@]3(C#N)CC1C=C(C(C)C)[C@@]23C(=O)O (stereo partly specified) | 30 (≈ 77.8 nM)
COC1C(C)OC(OCC23CC4C(C)CCC4[C@@]4(C#N)C[C@@H]2C=C(C(C)C)[C@@]34C(=O)O)C(O)C1O (stereo partly specified) | 2000 (≈ 4080 nM)
CC(C)C1=CC2C[C@]3(C=O)C4CCC(C)C4C[C@]2(CO)[C@]13C(=O)O (stereo partly specified) [SORDARICIN] | > 250000
CCCCCOC[C@]12CC3C(C)CCC3[C@@]3(C=O)CC1C=C(C(C)C)[C@@]23C(=O)O (stereo partly specified) | 0.01 (≈ 0.0248 nM)
CC(C)C1=CC2C[C@]3(C#N)C4CCC(C)C4C[C@]2(CO)[C@]13C(=O)O (stereo partly specified) | 20000 (≈ 60700 nM)
CCCCOC[C@]12CC3C(C)CCC3[C@@]3(C=O)CC1C=C(C(C)C)[C@@]23C(=O)O (stereo partly specified) | 0.1 (≈ 0.257 nM)
COC[C@]12CC3C(C)CCC3[C@@]3(C#N)CC1C=C(C(C)C)[C@@]23C(=O)O (stereo partly specified) | 1000 (≈ 2910 nM)
CCCCCCOC[C@]12CC3C(C)CCC3[C@@]3(C=O)CC1C=C(C(C)C)[C@@]23C(=O)O (stereo partly specified) | 15 (≈ 36 nM)
CCCOC[C@]12CC3C(C)CCC3[C@@]3(C=O)CC1C=C(C(C)C)[C@@]23C(=O)O (stereo partly specified) | 60 (≈ 160 nM)
CC(C)CCOC[C@]12CC3C(C)CCC3[C@@]3(C=O)CC1C=C(C(C)C)[C@@]23C(=O)O (stereo partly specified) | 0.01 (≈ 0.0248 nM)
CO[C@H]1[C@@H](O)[C@H](O)[C@H](OC[C@@]23C[C@@H]4[C@H](C)CC[C@H]4[C@@]4(C=O)CC2C=C(C(C)C)[C@@]34C(=O)O)O[C@@H]1C [SORDARIN] | 10000 (≈ 20300 nM)
